Test results as given in patent publication US10568868B2, “Methods and compositions for treating metabolic reprogramming disorders” (THE JOHNS HOPKINS UNIVERSITY, priority 2015, dated 2020).

Assays:
[1] = test system: CD4+ and CD8+ T cells; assay: T cell proliferation (eFluor 670 dilution) of splenocytes stimulated with anti-CD3; type: cell-based, C57BL/6 mice; details: anti-CD3, 72 h; DON 5 μM; 2-DG 0.6 mM; Metformin 1 mM
[2] = test system: CD4+ and CD8+ T cells; assay: IFN-γ secretion of anti-CD3 stimulated splenocytes (ELISA); type: cell-based, C57BL/6 mice; details: anti-CD3, 24 h; DON 5 μM; 2-DG 0.6 mM; Metformin 1 mM
[3] = test system: CD4+ T cells; assay: Extracellular flux analysis (ECAR, OCR) of CD4+ T cells stimulated with anti-CD3/CD28; type: cell-based, 5C.C7 mice; details: 2-DG 10 mM; Metformin 50 mM; DON 30 μM; after anti-CD3/CD28
Experimental: Extracellular flux analysis: Cells were initially plated to XF assay medium, modified DMEM (Seahorse Bioscience) containing 25 mM glucose, 2 mM L-glutamine, and 1 mM sodium pyruvate, and incubated in a non-CO2 incubator at 37° C. for 30 minutes. OCR and ECAR were measured at 37° C. in a XF96 Extracellular Flux Analyzer (Seahorse Bioscience) using manufacturer recommended protocols. After baseline measurements, OCR and ECAR were measured after sequentially adding anti-CD3/CD28 and metabolic reprogramming agents into each well to the indicated final concentrations using the included ports on the XF96 cartridges. All data were collected using the XF Reader software from Seahorse Bioscience.
OCR is an indicator of mitochondrial OXPHOS, and ECAR is predominantly a measure of lactic acid formed during glycolytic energy metabolism, and thus reflects overall glycolytic flux. Primary, naïve 5C.C7 CD4^+ T cells were incubated with pigeon cytochrome c (PCC) peptide for 48 hrs and then expanded and rested in IL-2 for an additional 5 days to generate previously activated CD4^+ cells. After measuring the baseline bioenergetics of these resting CD4^+ cells, cells were re-stimulated with anti-CD3/CD28 (FIG. 9A and FIG. 9B). […] Upon reaching the peak of glycolytic flux, metabolic reprogramming agents were administered to the cells. 2-DG is a glucose analog that inhibits hexokinase, the first enzyme in the glycolytic pathway (Rowe et al. (2013) Nature Medicine 19(4):488-493). […] Metformin is a commonly used oral hypoglycemic that activates AMPK, inhibits mitochondrial respiratory complex I and promotes fatty acid oxidation (Buzzai et al. (2007) Cancer Research 67(14):6745-6752; El-Mir et al. (2000) The Journal of Biological Chemistry 275(1):223-228).

[4] = Pharmacokinetics of DON in swine plasma and CSF after i.v. infusion of DON, compound 14b or compound 47; type: in vivo; details: for CSF-to-plasma ratio of DON: 60 min post-administration; for amount of DON delivered to the CSF relative to DON: CSF at 60 min post-dose
Experimental: Compound: Compound 47 was dissolved in a sterile saline containing 5% ethanol and 5% Tween 80 on the date of administration.
Swine: Swine studies were conducted under a protocol approved by the Johns Hopkins Animal Care and Use Committee. Adult, female Gottingen×Yucutan miniature swine (Massachusetts General Hospital, MA) were housed in Johns Hopkins University facilities accredited by the Association for Assessment and Accreditation of Laboratory Animal Care International in compliance with the Animal Welfare Act, Animal Welfare Regulations, and the Public Health Service Policy on the Humane Care and Use of Laboratory Animals. Animals were maintained on a 14-h light and 10-h dark schedule, provided ad libitum water and a commercial miniswine diet (Teklad, Madison, Wis.) with environmental enrichment (fruit/vegetables) twice daily.

[5] = In vitro liver microsomal stability, human microsomes
[6] = In vitro liver microsomal stability, pig microsomes
[7] = In vitro plasma stability, monkey plasma; type: in vitro ADME, monkeys
[8] = In vitro plasma stability, dog plasma; type: in vitro ADME
[9] = In vitro plasma stability, mouse plasma; type: in vitro ADME, mice
[10] = In vitro plasma stability, human plasma; type: in vitro ADME
[11] = In vitro plasma stability, pig plasma; type: in vitro ADME
[12] = test system: arthritis in a mouse model; assay: Arthritis mouse model; details: in vivo
[13] = test system: mouse model of Acute Respiratory Distress Syndrome (ARDS); assay: Mouse model of acute respiratory distress syndrome (ARDS); type: in vivo, mice; details: treated on day 2 & 4
Excerpt: FIG. 17A, FIG. 17B, and FIG. 17C show targeting glutamine in a mouse model of acute respiratory distress syndrome (ARDS). Mice were challenged with Ips (FIG. 17A) to induce ARDS and treated with DON on day 2 & 4.

[14] = test system: Balb/c to C57BL/6 heart allograft; assay: Murine heterotopic heart transplantation (Balb/c to C57BL/6); parameters: species or system mice; details: mouse, in vivo
Experimental: Murine heterotopic heart transplantation: BALB/c mice served as heart donors and C57BL/6 mice serve as allograft recipients. Either abdominal or cervical heterotopic heart transplantation was performed according to previously published methods (Corry et al. (1973) Transplantation 16(4):343-350; Oberhube et al. (2014) J Vis Exp 92:e50753). Functionality of the transplanted heart was monitored daily by palpation. Clinical rejection was defined by cessation of palpable heartbeats and confirmed by autopsy. Loss of graft function within 48 hrs of transplantation was considered as a technical failure, and animals in which this occurred were omitted from the analysis.
Finally, this metabolic reprogramming therapy with at least three metabolic reprogramming agents was employed in a Balb/c to C57BL/6 heart transplantation, which is a vascularized solid organ transplantation model. Strikingly, when recipient mice were treated with metabolic reprogramming therapy with at least three metabolic reprogramming agents, the grafted hearts continued beating for more than 100 days post-transplantation without rejection (FIG. 15F).

[15] = test system: cerebral malaria; assay: Cerebral malaria in mice; type: in vivo; details: treated on day 5 post infection and on day 6, every other day
Experimental: FIG. 19A and FIG. 19B show the targeting of glutamine metabolism to cure Cerebral malaria. Mice were treated on day 5 post infection and on day 6 (12 hours before subsequent death) with DON every other day.

[16] = test system: antigen-specific CD8+ T cells; type: in vivo, mice; details: DON added to 2DG+Metformin therapy
[17] = test system: antigen-specific CD4+ T cells; type: in vivo, mice
[18] = test system: pneumonitis in a mouse model; assay: Pneumonitis mouse model; details: in vivo
[19] = test system: glutaminase; assay: Glutaminase activity analysis of activated CD4+ T cells (radiolabeled assay); type: cell-based, mice; details: anti-CD3/CD28, 24 hrs; DON 5 μM
Experimental: Glutaminase activity analysis: Glutaminase activity measurement was adapted from previously described protocols (Thomas et al. (2013) Biochemical and Biophysical Research Communications 438(2):243-248). Briefly, T cells were lysed in ice-cold potassium phosphate buffer (45 mM, pH 8.2) containing protease inhibitors (Roche, Complete Protease Inhibitor Cocktail, 1 tablet in 50 ml) and incubated with 3H-glutamine (0.03 μM, 0.91 μCi) for 90 min at room temperature. The reactions were carried out in 50 μl reaction volumes in a 96-well microplate. At the end of the reaction period, the assay was terminated upon the addition of imidazole buffer (20 mM, pH 7). 96-well spin columns packed with strong anion ion-exchange resin (Bio-Rad, AG® 1-X2 Resin, 200-400 mesh, chloride form) were used to separate the substrate and the reaction product. Unreacted ^3H-glutamine was removed by washing with imidazole buffer. ^3H-glutamate, the reaction product, was then eluted with 0.1 N HCl and analyzed for radioactivity using Perkin Elmer's TopCount instrument in conjunction with their 96-well LumaPlates. […]

[20] = test system: mouse model of Pulmonary Fibrosis; assay: Mouse model of pulmonary fibrosis (intratracheal bleomycin); parameters: species or system mice; details: in vivo
Experimental: Mice were treated with intratracheal bleomycin to induce fibrosis.

[21] = test system: Balb/c to C57BL/6 skin allograft; assay: Murine skin transplantation (Balb/c to C57BL/6); type: in vivo, mice

CN(C)C(=N)N=C(N)N [metformin]
T cell proliferation [1]: inhibited T cell proliferation and cytokine production in a dose-dependent manner | IFN-γ (cytokine) production [2]: inhibited T cell proliferation and cytokine production in a dose-dependent manner | ECAR (glycolytic flux) of activated T cells [3]: increase | OCR (OXPHOS) of activated T cells [3]: marked suppression

O=CC[C@@H](O)[C@H](O)[C@H](O)CO [Compound 2-DG, 2-deoxy-D-glucose]
T cell proliferation [1]: inhibited T cell proliferation and cytokine production in a dose-dependent manner | IFN-γ (cytokine) production [2]: inhibited T cell proliferation and cytokine production in a dose-dependent manner | ECAR (glycolytic flux) of activated T cells [3]: sharp decrease | OCR (OXPHOS) of activated T cells [3]: insignificant increase

CC(C)OC(=O)[C@H](CCC(=O)C=[N+]=[N-])NC(=O)OC(OC(=O)C(C)(C)C)c1ccccc1 (some centres unmarked) [Compound 47]
CSF-to-plasma ratio of DON [4]: increased CSF-to-plasma ratios | amount of DON delivered to the CSF relative to DON [4]: substantially higher amounts of DON

CC(C)C[C@H](N)C(=O)N[C@@H](CCC(=O)C=[N+]=[N-])C(=O)OC(C)C [Compound 9]
liver microsomal stability [5]: moderate-high stability | liver microsomal stability [6]: moderate-high stability

CC(C)OC(=O)[C@H](CCC(=O)C=[N+]=[N-])NC(=O)O[C@H](C)OC(=O)C(C)(C)C (single isomer, unassigned) [Compound 14b]
plasma stability [7]: stable | plasma stability [8]: stable | plasma stability [9]: rapidly metabolized | plasma stability [10]: stable | plasma stability [11]: stable | CSF-to-plasma ratio of DON [4]: increased CSF-to-plasma ratios | amount of DON delivered to the CSF relative to DON [4]: substantially higher amounts of DON

CC(C)OC(=O)[C@H](CCC(=O)C=[N+]=[N-])NC(=O)[C@@H](N)Cc1c[nH]c2ccccc12 [Compound 38a]
liver microsomal stability [5]: moderate-high stability | liver microsomal stability [6]: moderate-high stability

[N-]=[N+]=CC(=O)CC[C@H](N)C(=O)O [DON, 6-Diazo-5-oxo-L-norleucine]
T cell proliferation [1]: decreased | arthritis [12]: treated arthritis | IFN-γ (cytokine) production [2]: decreased | lung damage [13]: less lung damage | recovery (weight gain) [13]: more rapid recovery (weight gain) | heart transplant rejection [14]: able to prevent heart transplant rejection | death (survival) [15]: prevent death at such a late stage of disease | CD8+ T cell effector function [16]: very potent inhibition | CD4+ T cell effector function ([17]; DON added to 2DG+Metformin therapy): very potent inhibition | frequency of Foxp3+ CD4+ T cells (Tregs) in vivo ([17]; relative frequency): increased the relative frequency of regulatory T cells | pneumonitis [18]: treated pneumonitis | glutaminase activity of activated T cells [19]: significantly abrogated | lung damage [20]: markedly decreased lung damage | recruitment/generation of lung fibrocytes [20]: decrease in the recruitment/generation of lung fibrocytes | ECAR (glycolytic flux) of activated T cells [3]: did not have an obvious impact | OCR (OXPHOS) of activated T cells [3]: did not have an obvious impact | skin allograft rejection / graft survival ([21]; fully MHC-mismatched): prevents transplant rejection and prolongs skin graft survival | skin graft median survival time (MST) ([21]; treatment from day 0 until rejection, no treatment 11 days): 22 days

CC(=O)N[C@@H](Cc1c[nH]c2ccccc12)C(=O)N[C@@H](CCC(=O)C=[N+]=[N-])C(=O)OC(C)C [Compound 60a]
liver microsomal stability [5]: moderate-high stability | liver microsomal stability [6]: moderate-high stability
